Data on 1 molecule can be found in US12440500B2, “Phytoecdysones and the derivatives thereof for use in the treatment of neuromuscular diseases” (BIOPHYTIS, priority 2019, dated 2025).

In the assay the test system is motor neurons of the lumbar spinal cord of SMA mice. As to the kind of experiment: Motor neuron count, location and soma surface (anti-ChAT immunofluorescence, lumbar spinal cord). The assay is classed as in vivo, mouse. As to the method:
A quantitative and qualitative study of the populations of motor neurons on thick cross-sections of the lumbar region of the spinal cord (L1-L5) of healthy control mice or SMA treated with the vehicle or with BIO101 for 11 days was carried out via immunofluorescent labeling with Choline AcetylTransferase (ChAT) such as was described hereinabove (Biondi et al., 2008; Boyer et al., 2013). The analysis was then refined by a study of the different motor neuron sub-populations by characterizing their location in the spinal cord (lateral or medial position), as well as the distribution of the size of their soma.
The anesthetized mice underwent an intracardiac infusion with PBS. The spinal cords of the mice were taken, fixed then rinsed. The lumbar region of the spinal cords (L1-L5) was coated in a 4% solution of agarose. 50 μm cross-sections were made using a vibratome over the entire length of the sample. One section every 5 sections of spinal cord was then used for the immunohistochemical analyses. After a saturation with 0.1M glycine, the tissues were then permeabilized, blocked then marked with a goat polyclonal primary antibody anti-choline acetyltransferase (ChAT) ( 1/400^e). The sections are then washed then incubated with the anti-goat polyclonal secondary antibody coupled with Cyanine 3 (1:400^e). The cores are marked using Bisbenzimide ( 1/1,000^e) then the sections are washed again before being mounted with a photobleaching inhibitor of the fluorescent dyes. The specificity of the marking is verified thanks to a control marking carried out in the absence of the primary antibody.
The images were obtained using a camera mounted on a microscope with a magnification of ×200 and coupled to a central processing unit of the microcomputer type comprising in particular a suitable software for image acquisition. All of the counts were carried out using image processing software.
The quantitative analysis was then refined, on the one hand, by studying the different motor neuron sub-populations by analyzing their location in the spinal cord (lateral or medial position), and on the other hand, by studying the distribution of the surface of their soma.

For `CC(C)(O)CC[C@@H](O)[C@](C)(O)[C@H]1CC[C@@]2(O)C3=CC(=O)[C@@H]4C[C@@H](O)[C@@H](O)C[C@]4(C)[C@H]3CC[C@]12C` [BIO101, 20-hydroxyecdysone], the “loss of motor neurons in relation to healthy control mice” value (11 days of daily treatment (SMA vehicle 25%)) worked out at 13%. Further, the “number of motor neurons per section by semi-ventral spinal cord” value (11 days of daily treatment, versus SMA vehicle, p<0.05) was “significantly higher”. For the same molecule, where the note is “versus SMA vehicle”, the “effect on the medial motor neurons” value is on record as “no significant effect” and the “number of lateral motor neurons” value is “higher”. Moreover, the “number of small motor neurons with a soma surface less than 300 μm^2” value (versus SMA vehicle, p<0.05) is recorded as “significantly limiting”.
